Legend:
Type in all cases: cell-based, human
IL-13 = IL-13 release by PBL (ELISA); conditions: for IL-13 release induced by PHA: Example 2, GR467 PBL, 15 μg/ml Cpd II, 15 μg/ml MP, 10 μM Dex, PHA 2 μg/ml, 96 hours, FIG. 3
Description: (§1) After this incubation, PHA was added to give a final concentration of 2 μg/ml, and the cells were incubated for an additional 96 hours at 37° C., 5% CO2. All cultures were performed in triplicate. Cells were then removed by centrifugation at 1000 rpm for 10 minutes, and the culture medium collected.
(§2) Release of IL-13 and interferon gamma (IFNγ) into the culture medium was measured by ELISA. To perform the ELISA, matched pairs of antibodies against human IL-13 and IFNγ were purchased from Pierce Biotechnology and Biosource, respectively. ELISA strip well plates were coated with 10 μg/ml of antibody (in phosphate-buffered saline (PBS)) to IL-13 and 4 μg/ml of antibody to IFNγ (in PBS) overnight at room temperature. The plates were then blocked using a 4% BSA solution in PBS for one hour, followed by the addition of 50 μl of experimental culture medium per well in duplicate. The plates were incubated at room temperature for one hour and then washed using 50 mM Tris pH 8.0 with 0.1% Tween 20. Then, solutions of 400 ng/ml biotinylated second antibody to IL-13 and 500 ng/ml biotinylated second antibody to IFNγ were made in blocking buffer, and 100 μl were added per well. The plates were incubated for 1 hour and washed again. A 1:8000 dilution of Strepavidin HRP (Pierce Biotechnology) conjugate was made in blocking buffer, and 100 μl were added to the wells and incubation continued for 30 minutes. A final wash step was performed, after which 100 μl Pierce Biotechnology TMB substrate were added to each well. Color was developed for 30 minutes and stopped by adding 100 μl 0.18 NH2SO4. OD was determined using microplate reader with a 450 nm filter.
After this incubation, PHA was added to give a final concentration of 5 μg/ml, and the cells were incubated for an additional 72 hours at 37° C., 5% CO2. All cultures were performed in triplicate. Cells were then removed by centrifugation at 1000 rpm for 10 minutes.
The supernatants were collected, and the concentrations of IL-13 and tumor necrosis factor alpha (TNFα) in the supernatants were measured by ELISA. The IL-13 ELISA was performed as described in Example 2.

IL-8 = IL-8 release by TNFα-stimulated HUVECs (ELISA); conditions: for IL-8 release stimulated by TNFα: HUVECs, 10 ng/ml TNFα, Cpd II 1-30 μg/ml, MP 15 μg/ml, Dex 10 μM, LY 294002 10 μM
Description: Passage 4 HUVECs, human source lot number 8710 (obtained from ATCC), were put into the wells of a 24-well tissue culture plate at 5,000 cells/well in EGM-2 medium and cultured for 72 hours at 37° C. and 5% CO2. […] After incubation for 1 hour at 37° C. and 5% CO2, TNFα (Pierce) was added to give a final concentration of 10 ng/ml, and the cells were incubated for an additional 18 hours at 37° C. and 5% CO2. After this incubation, the supernatants were collected, and the amount of IL-8 in the supernatants determined by ELISA as described in Example 4.

[1] = system: peripheral blood lymphocytes (PBL); test: PBL proliferation assay (Promega cell titer, OD 530 nm); conditions: for proliferation of PBL stimulated with PHA (OD at 530 nm): Example 1, donor GR283; for proliferation of PBL, both unstimulated and stimulated with PHA (OD at 530 nm): Dex 10 μM
Description: Whole blood was drawn from GR283, a human volunteer with known allergies, into a glass vacutainer tube containing no anticoagulant. This blood was allowed to clot, and the serum was removed by centrifugation and then heat inactivated by placing it in a water bath at 56° C. for 30 minutes. Whole blood from GR283 was also drawn into a glass vacutainer tube containing heparin and used for peripheral blood lymphocytes (PBL) isolation as follows. Whole blood was layered over room temperature Histopaque 1077 solution and centrifuged at 2000 rpm for 15 minutes at room temperature. Cells at the plasma-Histopaque interface were then removed and washed with culture medium (IMDM medium with 10% heat-inactivated GR283 serum plus 1% penicillin/streptomycin) at 37° C.
Then, GR283's PBL in culture medium were added to the wells to give a final concentration of 150,000 cells per well, and the plates were incubated at 37° C., 5% CO2 for 24 hours. After this incubation, phytohemagglutinin (PHA) in culture medium was added to give final concentrations of 2 μg/ml, 5 μg/ml or 20 μg/ml, final total volume of 200 μl/well, and the cells were incubated for an additional 72 hours at 37° C., 5% CO2. All cultures were performed in triplicate.
Cell proliferation was assayed by adding 20 μl of Promega cell titer solution to each well and incubating the plate for an additional 4 hours. Promega cell titer solution is a solution containing a tetrazolium dye that is reduced by living cells to a formazan dye, and this reduction is proportional to the number of living cells present in the well. After the 4-hour incubation, the optical density (OD) at 530 nm of each well was measured. The OD at 530 nm for blank wells containing no cells was subtracted from the OD of the experimental wells.
Then, GR467's PBL in culture medium were added to the wells to give a final concentration of 150,000 cells per well, and the plates were incubated at 37° C., 5% CO2 for 24 hours. After this incubation, PHA was added to give a final concentration of 2 μg/ml, final total volume of 200 μl/well, and the cells were incubated for an additional 72 hours at 37° C., 5% CO2. All cultures were performed in triplicate.
Then, GR191's PBL in culture medium were added to the wells to give a final concentration of 150,000 cells per well, and the plates were incubated at 37° C., 5% CO2 for 24 hours. After this incubation, PHA was added to give final concentrations of 2 μg/ml and 5 μg/ml, final total volume of 200 μl/well, and the cells were incubated for an additional 72 hours at 37° C., 5% CO2. All cultures were performed in triplicate.

IFNγ = IFNγ release by PBL (ELISA); conditions: Example 2, GR467 PBL, 15 μg/ml Cpd II, 15 μg/ml MP, 10 μM Dex, FIG. 4; for IFNγ release, cells stimulated with PHA: PHA 2 μg/ml, 96 hours
Description: as §1, §2

[2] = Homo sapiens, HUVEC, 18 h, read-out: % inhibition (IL-8)
[3] = Cpd II and MP 5, 15, 50 μg/ml, Dex 10 μg/ml, PHA 2, 5, 20 μg/ml, FIGS. 1A-C
[4] = Example 2, donor GR467, Cpd II 5, 15, 25 μg/ml, MP 15 μg/ml, PHA 2 μg/ml, FIG. 2
[5] = Example 3, donor GR191, Cpd II 5, 15, 25, 50 μg/ml, MP 50 μg/ml, PHA 2 and 5 μg/ml, FIGS. 5A-B

SMILES | IL-13 release induced by PHA (IL-13) | release of IL-13 from PHA-stimulated PBL (IL-13; Example 3, GR191 PBL, Cpd II 15 and 50 μg/ml, Dex 10 μM, PHA 5 μg/ml, 72 hours, FIG. 6) | IL-8 release stimulated by TNFα (IL-8) | inhibition at 1 µg/mL (IL-8; [2]) | inhibition at 5 µg/mL (IL-8; [2]) | inhibition at 10 µg/mL (IL-8; [2]) | inhibition at 15 µg/mL (IL-8; [2]) | inhibition at 30 µg/mL (IL-8; [2]) | proliferation of PBL stimulated with PHA (OD at 530 nm) [1, 3] | proliferation of PBL, both unstimulated and stimulated with PHA (OD at 530 nm) [1, 4] | proliferation of PBL, both unstimulated and stimulated with PHA (OD at 530 nm) [1, 5] | IFNγ release, unstimulated cells (IFNγ) | IFNγ release, cells stimulated with PHA (IFNγ) | IL-13 release induced by PHA (IL-13; listed as Methylphenidate) | proliferation of PBL stimulated with PHA (OD at 530 nm) ([1]; highest MP dose (50 μg/ml) and lowest PHA dose (2 μg/ml)) | IFNγ release, cells stimulated with PHA (IFNγ; listed as Methylphenidate)
COC(=O)C(c1ccc(-c2ccccc2)cc1)C1CCCCN1 (stereo not drawn) [Cpd II] | significantly inhibited IL-13 release | significantly inhibited the release of IL-13 | decreased IL-8 release stimulated by TNFα in a dose-dependent manner | -51.1% | 3.08% | 38.2% | 41.7% | 86.9% | significantly inhibited the proliferation of PBL stimulated with PHA in a dose-dependent manner | significantly inhibited the proliferation of PBL | significantly inhibited the proliferation of PBL | significantly inhibited IFNγ release | significantly inhibited IFNγ release | – | – | –
COC(=O)C(c1ccccc1)C1CCCCN1 (stereo not drawn) [methylphenidate] | increased the release of IL-13 | – | slightly decreased IL-8 release | – | – | – | 15.2% | – | did not significantly reduce the proliferation | did not | did not | had some effect | increased the release of IFNγ | did not inhibit the release of IL-13 | showed a significant effect | did not significantly suppress the release of IFNγ

From US8076485B2, “Methylphenidate derivatives and uses of them” (priority 2005, dated 2011)
